Values after ≈ are worked out from the molar mass of the structure shown.
Tests used:
E. coli ATCC25922 = assay: MIC by broth microdilution, wild type strain ATCC25922; type: cell-based
Method: (§1) Bacterial isolates were cultivated from −70° C. frozen stocks of the indicated strains by overnight passages at 35° C. in ambient air on Mueller-Hinton agar (Beckton Dickinson, Franklin Lakes, N.J.). Minimum Inhibitory Concentrations (MICs) were determined by the broth microdilution method in accordance with the Clinical and Laboratory Standards Institute (CLSI) guidelines. In brief, organism suspensions were adjusted to a 0.5 McFarland standard to yield a final inoculum between 3×10^5 and 7×10^5 colony-forming units (CFU)/mL. Drug dilutions and inocula were made in sterile, cation adjusted Mueller-Hinton Broth (Beckton Dickinson). An inoculum volume of 100 μL was added to wells containing 100 μL of broth with 2-fold serial dilutions of drug. All inoculated microdilution trays were incubated in ambient air at 35° C. for 18-24 hours. Following incubation, the lowest concentration of the drug that prevented visible growth (OD600 nm <0.05) was recorded as the MIC.

envA+ (D21) E. coli = assay: MIC by broth microdilution, isogenic envA+ strain; type: cell-based
Method: as §1

envA1 (D22) E. coli = assay: MIC by broth microdilution, isogenic envA1 mutant strain; type: cell-based
Escherichia coli = assay: Checkerboard synergy assay with LpxCi-4; type: cell-based; settings: combination with LpxCi-4
From the text: (§2) One classic method for assessing synergy, referred to as the checkerboard assay, is used to predict the efficacy of antibacterial agents, and is described by Scribner et. al., (Antimicrobial Agents and Chemotherapy 21(6):939-943 (1982)) and in Goodman & Gilman (The Pharmacological Basis of Therapeutics, Sixth Edition, pp. 1097-1098 (1980)). The checkerboard assay involves serial two-fold dilutions of the antibiotics individually and in combination in broth, which is then inoculated with the microorganism to be tested. After incubation, the minimum inhibitory concentration (MIC) of each drug used individually and in combination is determined (N.B., the MIC is the lowest concentration of the drug that inhibits growth in the medium). Synergism is indicated by a decrease in the MIC of each drug when used in combination. Antagonism is indicated by an increase in the MIC of either or both drugs when used in combination. Alternate methods of assessing synergy are reviewed in Greco, et al., Pharmacological Reviews 47(2):[…] (1995), incorporated herein by reference in its entirety.
(§3) Partial or full inhibition of LpxC should compromise the outer membrane and thus allow these synergizing agents to enter the cells and exert an antibacterial effect at concentrations where cells untreated with an LpxC inhibitor are unaffected. As a first step, checkerboard synergy assays for a variety of antibacterial agents were perform with several LpxC inhibitors, on several species of gram negative bacteria.
as §1
(§4) Standard checkerboard assays were performed with a combination of the indicated agents and LpxCi-4. Table 2 provides the FICI calculated according to standard techniques.

Klebsiella pneumoniae = assay: Checkerboard synergy assay with LpxCi-4; type: cell-based; settings: combination with LpxCi-4
From the text: as §2, §3, §1, §4

Yersinia enterocolitica = assay: Checkerboard synergy assay with LpxCi-4; type: cell-based; settings: combination with LpxCi-4
From the text: as §2, §3, §1, §4

gram negative bacteria = assay: Checkerboard synergy score at fractions of the antibacterial agent's MIC, with LpxCi-1, -2, -3; type: cell-based
Procedure, shortened: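 CLSI broth microdilution in cation-adjusted Mueller-Hinton broth, inoculum 3×10^5–7×10^5 CFU/mL, 2-fold serial drug dilutions.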

K. pneumo. (ATCC43816) = assay: Neutropenic thigh in vivo efficacy model (mice); set-up: species or system Klebsiella pneumoniae
[1] = test system: P. aeruginosa (ATCC27853); settings: P. aeruginosa (ATCC27853); summary

`CN[C@H](CC(C)C)C(=O)N[C@H]1C(=O)N[C@@H](CC(N)=O)C(=O)N[C@H]2C(=O)N[C@H]3C(=O)N[C@H](C(=O)N[C@H](C(=O)O)c4cc(O)cc(O)c4-c4cc3ccc4O)[C@H](O)c3ccc(c(Cl)c3)Oc3cc2cc(c3O[C@@H]2O[C@H](CO)[C@@H](O)[C@H](O)[C@H]2O[C@H]2C[C@](C)(N)[C@H](O)[C@H](C)O2)Oc2ccc(cc2Cl)[C@H]1O` [Vancomycin, vancomycin] showed an MIC (E. coli ATCC25922) of over 256 mg/L, an MIC (envA+ (D21) E. coli) of over 256 mg/L and an MIC (envA1 (D22) E. coli; Strain envA1 (D21)) of 32 mg/L (≈ 22.1 µM). For the same compound, the “Fold decrease in MIC (envA+/envA1)” value (envA1 (D22) E. coli; envA+ vs envA1 E. coli) was “≧8”, the FICI index (Escherichia coli) was “≦0.28” and the FICI index (Klebsiella pneumoniae) was “≦0.18”. The FICI index (Yersinia enterocolitica) was “≦0.31”, the “Synergy Score” value (gram negative bacteria; with LpxCi-1, antibacterial agent at 1/16 MIC) was 0.17 and the “Synergy Score” value (gram negative bacteria; with LpxCi-1, antibacterial agent at 1/64 MIC) was 0.35. For the same compound, the “Synergy Score” value (gram negative bacteria; with LpxCi-1, antibacterial agent at ¼ MIC) was 0.29, the “Synergy Score” value (gram negative bacteria; with LpxCi-2, antibacterial agent at 1/16 MIC) was 0.40 and the “Synergy Score” value (gram negative bacteria; with LpxCi-2, antibacterial agent at 1/64 MIC) was 1.02. For the same compound, the “Synergy Score” value (gram negative bacteria; with LpxCi-2, antibacterial agent at ¼ MIC) was 0.36, the “Synergy Score” value (gram negative bacteria; with LpxCi-3, antibacterial agent at 1/16 MIC) was 0.40 and the “Synergy Score” value (gram negative bacteria; with LpxCi-3, antibacterial agent at 1/64 MIC) was 0.35. The “Synergy Score” value (gram negative bacteria; with LpxCi-3, antibacterial agent at ¼ MIC) was 0.36, the “in vivo synergy with multiple LpxC inhibitors” value (K. pneumo. (ATCC43816); K. pneumo. (ATCC43816), summary) was “surprising in vivo synergy” and the “reduction in CFU, single agent” value (K. pneumo. (ATCC43816); vancomycin alone at 440 mg/kg/day, ATCC43816) was “no significant reduction in CFU”. For the same compound, the “in vivo synergy with LpxC inhibitors” value [1] was “surprising in vivo synergy”.

— patent US20120283175A1, “ANTIBACTERIAL COMPOSITIONS” (Achaogen, Inc., priority 2009, published 2012)
